# How the values were obtained:
# barnyardgrass [1] = assay: Test C preemergence; assay type: in vivo, Echinochloa crusgalli; details: 0 to 100 scale (0 no effect, 100 complete control)
# How it was run: (§1)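 Pre: seeds in loam/sand, directed soil spray. Post: 1–2 leaf plants, 2–10 cm. Cmpd in non-phytotoxic solvent + surfactant. Greenhouse 10 d; visual rating vs untreated, 0 = none, 100 = complete control.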
# blackgrass [2] = assay: Test C preemergence; assay type: in vivo, Alopecurus myosuroides; details: 0 to 100 scale (0 no effect, 100 complete control)
# How it was run: as §1
# corn [3] = assay: Test C preemergence; assay type: in vivo, Zea mays; details: 0 to 100 scale (0 no effect, 100 complete control)
# How it was run: as §1
# green foxtail [4] = assay: Test C preemergence; assay type: in vivo, Setaria viridis; details: 0 to 100 scale (0 no effect, 100 complete control)
# How it was run: as §1
# kochia [5] = assay: Test C preemergence; assay type: in vivo, Bassia scoparia; details: 0 to 100 scale (0 no effect, 100 complete control)
# How it was run: as §1
# oat, wild [6] = assay: Test C preemergence; assay type: in vivo, Avena fatua; details: 0 to 100 scale (0 no effect, 100 complete control)
# How it was run: as §1
# pigweed, palmer [7] = assay: Test C preemergence; assay type: in vivo, Amaranthus palmeri; details: 0 to 100 scale (0 no effect, 100 complete control)
# How it was run: as §1
# ragweed [8] = assay: Test C preemergence; assay type: in vivo, Ambrosia artemisiifolia; details: 0 to 100 scale (0 no effect, 100 complete control)
# How it was run: as §1
# ryegrass, Italian [9] = assay: Test C preemergence; assay type: in vivo, Lolium multiflorum; details: 0 to 100 scale (0 no effect, 100 complete control)
# How it was run: as §1
# soybean [10] = assay: Test C preemergence; assay type: in vivo, Glycine max; details: 0 to 100 scale (0 no effect, 100 complete control)
# How it was run: as §1
# wheat [11] = assay: Test C preemergence; assay type: in vivo, Triticum aestivum; details: 0 to 100 scale (0 no effect, 100 complete control)
# How it was run: as §1
# barnyardgrass [12] = assay: Test C postemergence; assay type: in vivo, Echinochloa crusgalli; details: 10 days
# How it was run: as §1
# blackgrass [13] = assay: Test C postemergence; assay type: in vivo, Alopecurus myosuroides; details: 10 days
# How it was run: as §1
# corn [14] = assay: Test C postemergence; assay type: in vivo, Zea mays; details: 10 days
# How it was run: as §1
# green foxtail [15] = assay: Test C postemergence; assay type: in vivo, Setaria viridis; details: 10 days
# How it was run: as §1
# kochia [16] = assay: Test C postemergence; assay type: in vivo, Bassia scoparia; details: 10 days
# How it was run: as §1
# oat, wild [17] = assay: Test C postemergence; assay type: in vivo, Avena fatua; details: 10 days
# How it was run: as §1
# pigweed, palmer [18] = assay: Test C postemergence; assay type: in vivo, Amaranthus palmeri; details: 10 days
# How it was run: as §1
# ragweed [19] = assay: Test C postemergence; assay type: in vivo, Ambrosia artemisiifolia; details: 10 days
# How it was run: as §1
# ryegrass, Italian [20] = assay: Test C postemergence; assay type: in vivo, Lolium multiflorum; details: 10 days
# How it was run: as §1
# soybean [21] = assay: Test C postemergence; assay type: in vivo, Glycine max; details: 10 days
# How it was run: as §1
# wheat [22] = assay: Test C postemergence; assay type: in vivo, Triticum aestivum; details: 10 days
# How it was run: as §1
# galium = assay: Test C postemergence; assay type: in vivo, Galium aparine; details: 10 days
# How it was run: as §1
# horseweed = assay: Test C postemergence; assay type: in vivo, Erigeron canadensis; details: 10 days
# How it was run: as §1
# barnyardgrass [23] = assay: Test D flooded paddy test; assay type: in vivo, Echinochloa crus-galli; details: 250 g ai/ha, applied to paddy water, visual rating after 13 to 14 days, scale 0 to 100 (0 no effect, 100 complete control)
# How it was run: (§2)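 At the 2-leaf stage, floodwater 3 cm deep received the test compound; that depth persisted throughout. Plants scored visually 13 to 14 days on, 0 (no effect) to 100 (complete control), dash indicating no result.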
# ducksalad = assay: Test D flooded paddy test; assay type: in vivo, Heteranthera limosa; details: 250 g ai/ha, applied to paddy water, visual rating after 13 to 14 days, scale 0 to 100 (0 no effect, 100 complete control)
# How it was run: as §2
# rice = assay: Test D flooded paddy test; assay type: in vivo, Oryza sativa; details: 250 g ai/ha, applied to paddy water, visual rating after 13 to 14 days, scale 0 to 100 (0 no effect, 100 complete control)
# How it was run: as §2
# sedge, umbrella = assay: Test D flooded paddy test; assay type: in vivo, Cyperus difformis; details: 250 g ai/ha, applied to paddy water, visual rating after 13 to 14 days, scale 0 to 100 (0 no effect, 100 complete control)
# How it was run: as §2
# [24] = Preemergence, 500 g ai/ha, visual rating after 10 days
# [25] = Test C, preemergence, 125 g ai/ha
# [26] = 125 g ai/ha, postemergence, 0 to 100 scale, 0 no effect, 100 complete control
# [27] = Postemergence, 500 g ai/ha, visual 0 to 100 scale (0 no effect, 100 complete control)
structure (smiles),measurement,setting,value
Cc1cc(-n2cnc(C(C)C)n2)cc(C(=O)N2C[C@H](C)Oc3c(Cl)cccc32)c1C [Compound 259],"Plant response rating, Barnyardgrass",barnyardgrass [1]; [24],90
same,Barnyardgrass plant response rating,barnyardgrass [1]; [25],30
same,"Plant response rating, Blackgrass",blackgrass [2]; [24],70
same,Blackgrass plant response rating,blackgrass [2]; [25],50
same,"Plant response rating, Corn",corn [3]; [24],30
same,Corn plant response rating,corn [3]; [25],30
same,"Plant response rating, Foxtail, Green",green foxtail [4]; [24],100
same,"Foxtail, Green plant response rating",green foxtail [4]; [25],100
same,"Plant response rating, Kochia",kochia [5]; [24],100
same,Kochia plant response rating,kochia [5]; [25],90
same,"Plant response rating, Oat, Wild","oat, wild [6]; [24]",90
same,"Oat, Wild plant response rating","oat, wild [6]; [25]",60
same,"Plant response rating, Pigweed, Palmer","pigweed, palmer [7]; [24]",100
same,"Pigweed, Palmer plant response rating","pigweed, palmer [7]; [25]",100
same,"Plant response rating, Ragweed",ragweed [8]; [24],0
same,Ragweed plant response rating,ragweed [8]; [25],30
same,"Plant response rating, Ryegrass, Italian","ryegrass, Italian [9]; [24]",100
same,"Ryegrass, Italian plant response rating","ryegrass, Italian [9]; [25]",90
same,"Plant response rating, Soybean",soybean [10]; [24],100
same,Soybean plant response rating,soybean [10]; [25],20
same,"Plant response rating, Wheat",wheat [11]; [24],90
same,Wheat plant response rating,wheat [11]; [25],50
same,"Plant response rating, Barnyardgrass",barnyardgrass [12]; [26],20
same,"Plant response rating, Barnyardgrass",barnyardgrass [12]; [27],70
same,"Plant response rating, Blackgrass",blackgrass [13]; [26],70
same,"Plant response rating, Blackgrass",blackgrass [13]; [27],80
same,"Plant response rating, Corn",corn [14]; [26],10
same,"Plant response rating, Corn",corn [14]; [27],30
same,"Plant response rating, Foxtail, Green",green foxtail [15]; [26],40
same,"Plant response rating, Foxtail, Green",green foxtail [15]; [27],90
same,"Plant response rating, Kochia",kochia [16]; [26],70
same,"Plant response rating, Kochia",kochia [16]; [27],80
same,"Plant response rating, Oat, Wild","oat, wild [17]; [26]",30
same,"Plant response rating, Oat, Wild","oat, wild [17]; [27]",30
same,"Plant response rating, Pigweed, Palmer","pigweed, palmer [18]; [26]",90
same,"Plant response rating, Pigweed, Palmer","pigweed, palmer [18]; [27]",90
same,"Plant response rating, Ragweed",ragweed [19]; [26],20
same,"Plant response rating, Ragweed",ragweed [19]; [27],50
same,"Plant response rating, Ryegrass, Italian","ryegrass, Italian [20]; [26]",30
same,"Plant response rating, Ryegrass, Italian","ryegrass, Italian [20]; [27]",50
same,"Plant response rating, Soybean",soybean [21]; [26],100
same,"Plant response rating, Soybean",soybean [21]; [27],100
same,"Plant response rating, Wheat",wheat [22]; [26],20
same,"Plant response rating, Wheat",wheat [22]; [27],20
same,"Plant response rating, Galium",galium; [26],100
same,"Plant response rating, Galium",galium; [27],100
same,"Plant response rating, Horseweed",horseweed; [26],0
same,"Plant response rating, Horseweed",horseweed; [27],0
same,"Plant response rating, Barnyardgrass (Flood)",barnyardgrass [23],0
same,"Plant response rating, Ducksalad (Flood)",ducksalad,0
same,"Plant response rating, Rice (Flood)",rice,0
same,"Plant response rating, Sedge, Umbrella (Flood)","sedge, umbrella",0

# — patent US20260262643A1, “HERBICIDAL BENZOXAZINES” (FMC CORPORATION, priority 2022, published 2026)
